ChEMBL document CHEMBL1126436, “Taxol Photoaffinity Label: 7-(p-Azidobenzoyl)taxol Synthesis and Biological Evaluation” (1992)

How the values were obtained:
Tubulin = assay: Compound was evaluated for the in vitro concentration required to produce 50% stimulation of the microtubule assembly; conditions: read-out: ED50 (the source's name)
B16 = assay: Compound was evaluated for the concentration which inhibits B16 melanoma cell proliferation by 50%; type: functional; conditions: Mus musculus, read-out: ED50 (the source's name)

| Compound | EC50 (Tubulin) | EC50 (B16) |
| --- | --- | --- |
| CC(=O)O[C@H]1C(=O)[C@]2(C)[C@@H](OC(=O)c3ccc(N=[N+]=[N-])cc3)C[C@H]3OC[C@@]3(OC(C)=O)[C@H]2[C@H](OC(=O)c2ccccc2)[C@]2(O)C[C@H](OC(=O)[C@H](O)C(NC(=O)c3ccccc3)c3ccccc3)C(C)=C1C2(C)C (some centres undefined) | 15000 nM | 957 nM |
| CC(=O)O[C@H]1C(=O)[C@@]2(C)[C@H]([C@H](OC(=O)c3ccccc3)[C@]3(O)C[C@H](OC(=O)[C@H](O)[C@@H](NC(=O)c4ccccc4)c4ccccc4)C(C)=C1C3(C)C)[C@]1(OC(C)=O)CO[C@@H]1C[C@@H]2O [PACLITAXEL] | 700 nM | 31.5 nM |
